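Growth conditions: 96-well plates. Treatment: test compound, 48 hours, 5 concentrations. Analysis: linear interpolation between bracketing concentrations; unreached endpoints set to highest concentration. TGI marks complete inhibition of growth.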 Where only a bound is given, the exact number is not on record here.

One assay relates to DLD-1 colon. The assay can be described thus: inhibition of tumour cell growth, NCI panel, 48 h.
The compound `COc1cc(Nc2c3ccccc3nc3ccccc23)ccc1NS(C)(=O)=O` had a TGI of 22 µM.

Compound `COc1ccc(O)cc1` showed a TGI of over 100 µM.

The next assay concerns SW-620 colon. Kind of assay: inhibition of tumour cell growth, NCI panel, 48 h.
`O=c1[nH]/c(=C/c2ccc(OCc3ccccc3)cn2)c(=O)[nH]/c1=C/c1ccc(O)cc1` had a TGI of over 100 µM.

`N#C/C(=C\n1ccc(=O)[nH]c1=S)C(N)=O` yielded a TGI of over 100 µM.

`O=C(OCC1OC2OC(c3ccccc3)(n3ccc4c([N+](=O)[O-])ccnc43)OC2C1OC(=O)c1ccccc1)c1ccccc1` (stereo not given) came in with a TGI of over 100 µM.

The compound `Cc1ccc(/C(O)=C/C(=O)C(=O)/C=C(\O)c2ccc(C)cc2C)c(C)c1` yielded a TGI of 6.88 µM.

Take `CC1=COC(C)(C=C(C#N)C#N)CC1` (stereo not given): the TGI was over 100 µM.

Turning to `O=C(NCCCCCCNCc1cccc2ccccc12)Nc1cccc2ccccc12`, the TGI was over 100 µM.

As to `Cc1ccc([C@H]2CC(=O)C[C@H](c3ccc(C)cc3)C23C(=O)c2ccccc2C3=O)cc1`, the TGI was over 100 µM.

For `O=c1c2ncn(COCCCl)c2n(-c2ccccc2)c(=S)n1-c1ccccc1`, the TGI is over 100 µM.

`COc1ccc(/C=N/N=C(\N)NO)c(O)c1` returned a TGI of over 10 µM.

The compound `OCC1OC(n2cnc3c(Cl)nc(Nc4ccccc4)nc32)CC1O` (stereo not given) registered a TGI of over 100 µM.

The compound `NCCSc1nc2ccccc2c(=O)n1-c1ccccc1` displayed a TGI of over 100 µM.

With `Nc1ccc(N=Nc2ccccc2)cc1`, the TGI was over 100 µM.

The compound `CN(NC(=O)c1cccs1)C1=NCCCN1` returned a TGI of over 100 µM.

`c1cc2nnnn2nc1N1CCCC1`: the TGI is over 100 µM.

`N#Cc1c(-c2ccccc2)nc(-c2ccccc2)sc1=S` came in with a TGI of over 100 µM.

In turn, `COc1cc(Nc2c3ccccc3nc3ccccc23)ccc1NS(C)(=O)=O` came in with a TGI of over 100 µM.

Compound `CCn1nc2c3c(ncn3C(C)(C)O2)c1=O` yielded a TGI of over 100 µM.

Regarding `O=C1CCCCC(=O)OC2(CCCCC2=O)CC1` (stereo not given), the TGI was over 100 µM.

In turn, `CCCCCC(=O)NC(=S)Nc1nn[nH]n1` had a TGI of over 100 µM.

As for `CCC(C#N)NC(=O)NC(C#N)CC` (stereo not given), the TGI is over 100 µM.

In turn, `C[C@H](N)C(=O)Nc1ccc(-c2nc3ccccc3s2)cc1` registered a TGI of 31 µM.

On to `CC(=O)O[C@H]1C#C/C=C\C#CC[C@@H]2C(=O)N[C@@H]12`, for which the TGI was over 100 µM.

`Cc1ccc2nc(Cl)c(/C=N/N3C(=O)/C(=C/c4ccccc4S)N=C3c3ccccc3)cc2c1` displayed a TGI of over 100 µM.

The compound `CN(O)C(=O)c1cccc(Cl)c1` registered a TGI of over 100 µM.

`CCOP(=O)(OCC)c1c(C(=O)OC)cc(=O)[nH]c1-c1ccc(C)cc1`: the TGI is 23.5 µM.

As to `COC(=O)C1=C(C(=O)OC)SC2(S1)C1=C(CCCC1)SC(C(=O)OC)=C2C(=O)OC`, the TGI came out at 17.1 µM.

As to `C1CCC2C(C1)CCCC2NC1=NCCO1` (stereo not given), the TGI is over 100 µM.

`Cc1cn(C2CC(n3cc(Cn4cc(Br)c(=O)[nH]c4=O)nn3)C(CO)O2)c(=O)[nH]c1=O` (stereo not given) had a TGI of over 100 µM.

For the compound `C1CNCCNCCN1`, the TGI was over 100 µM.

Take `COc1ccc(O)cc1`: the TGI was over 100 µM.

`Cc1cn(C(Cc2ccccc2)OCCO)c(=O)[nH]c1=O` (stereo not given) had a TGI of over 100 µM.

In the case of `O=c1nc2c(c(-c3ccccc3Cl)[nH]1)COC/C2=C\c1ccccc1Cl`, the TGI was over 100 µM.

Another assay relates to OVCAR-5 ovarian. The assay can be described thus: inhibition of tumour cell growth, NCI panel, 48 h.
`O=c1[nH]/c(=C/c2ccc(OCc3ccccc3)cn2)c(=O)[nH]/c1=C/c1ccc(O)cc1` came in with a TGI of over 100 µM.

Take `N#C/C(=C\n1ccc(=O)[nH]c1=S)C(N)=O`: the TGI was over 100 µM.

With `O=C(OCC1OC2OC(c3ccccc3)(n3ccc4c([N+](=O)[O-])ccnc43)OC2C1OC(=O)c1ccccc1)c1ccccc1` (stereo not given), the TGI was over 100 µM.

The compound `Cc1ccc(/C(O)=C/C(=O)C(=O)/C=C(\O)c2ccc(C)cc2C)c(C)c1` returned a TGI of 3.88 µM.

As to `CC1=COC(C)(C=C(C#N)C#N)CC1` (stereo not given), the TGI is over 100 µM.

Regarding `O=C(NCCCCCCNCc1cccc2ccccc12)Nc1cccc2ccccc12`, the TGI was over 100 µM.

Take `Cc1ccc([C@H]2CC(=O)C[C@H](c3ccc(C)cc3)C23C(=O)c2ccccc2C3=O)cc1`: the TGI was over 100 µM.

On to `O=c1c2ncn(COCCCl)c2n(-c2ccccc2)c(=S)n1-c1ccccc1`, for which the TGI was over 100 µM.

As to `COc1ccc(/C=N/N=C(\N)NO)c(O)c1`, the TGI was over 10 µM.

For `OCC1OC(n2cnc3c(Cl)nc(Nc4ccccc4)nc32)CC1O` (stereo not given), the TGI is over 100 µM.

In turn, `NCCSc1nc2ccccc2c(=O)n1-c1ccccc1` returned a TGI of over 100 µM.

`Nc1ccc(N=Nc2ccccc2)cc1` came in with a TGI of over 100 µM.

`CN(NC(=O)c1cccs1)C1=NCCCN1`: the TGI is over 100 µM.

Take `c1cc2nnnn2nc1N1CCCC1`: the TGI is over 100 µM.

`N#Cc1c(-c2ccccc2)nc(-c2ccccc2)sc1=S` showed a TGI of over 100 µM.

As for `COc1cc(Nc2c3ccccc3nc3ccccc23)ccc1NS(C)(=O)=O`, the TGI came out at 23 µM.

Compound `CCn1nc2c3c(ncn3C(C)(C)O2)c1=O` registered a TGI of over 100 µM.

`O=C1CCCCC(=O)OC2(CCCCC2=O)CC1` (stereo not given) showed a TGI of over 100 µM.

`CCCCCC(=O)NC(=S)Nc1nn[nH]n1` yielded a TGI of over 100 µM.

Compound `CCC(C#N)NC(=O)NC(C#N)CC` (stereo not given) registered a TGI of over 100 µM.

The compound `C[C@H](N)C(=O)Nc1ccc(-c2nc3ccccc3s2)cc1` had a TGI of 43.6 µM.

In turn, `CC(=O)O[C@H]1C#C/C=C\C#CC[C@@H]2C(=O)N[C@@H]12` showed a TGI of over 100 µM.

As for `Cc1ccc2nc(Cl)c(/C=N/N3C(=O)/C(=C/c4ccccc4S)N=C3c3ccccc3)cc2c1`, the TGI is over 100 µM.

With `CN(O)C(=O)c1cccc(Cl)c1`, the TGI is over 100 µM.

In the case of `CCOP(=O)(OCC)c1c(C(=O)OC)cc(=O)[nH]c1-c1ccc(C)cc1`, the TGI stood at 20.5 µM.

`COC(=O)C1=C(C(=O)OC)SC2(S1)C1=C(CCCC1)SC(C(=O)OC)=C2C(=O)OC` gave a TGI of 25.4 µM.

In the case of `C1CCC2C(C1)CCCC2NC1=NCCO1` (stereo not given), the TGI was over 100 µM.

For the compound `Cc1cn(C2CC(n3cc(Cn4cc(Br)c(=O)[nH]c4=O)nn3)C(CO)O2)c(=O)[nH]c1=O` (stereo not given), the TGI was over 100 µM.

`C1CNCCNCCN1`: the TGI was over 100 µM.

In the case of `COc1ccc(O)cc1`, the TGI is over 100 µM.

Regarding `Cc1cn(C(Cc2ccccc2)OCCO)c(=O)[nH]c1=O` (stereo not given), the TGI was over 100 µM.

These data come from PubChem BioAssay (NCI).
